Measurements: patent publication EP4782437A1, “HETEROARYL COMPOUND, AND PREPARATION METHOD THEREFOR AND USE THEREOF IN MEDICINE” (Jiangsu Hengrui Pharmaceuticals Co., Ltd., priority 2023, dated 2025)

Key:
[1] = molecular target: T1, BTK recombinant human protein (Homo sapiens, UniProt Q06187); test: Inhibitory activity against BTK (HTRF KinEASE-TK kit); assay type: biochemical; conditions: 2 nM BTK, 10 µM ATP, 0.5 hours preincubation at 25°C; read-out: IC50 values of inhibitory activity against BTK
T1 construct: purchased Thermo PV3363
T1 sequence (Q06187 whole entry): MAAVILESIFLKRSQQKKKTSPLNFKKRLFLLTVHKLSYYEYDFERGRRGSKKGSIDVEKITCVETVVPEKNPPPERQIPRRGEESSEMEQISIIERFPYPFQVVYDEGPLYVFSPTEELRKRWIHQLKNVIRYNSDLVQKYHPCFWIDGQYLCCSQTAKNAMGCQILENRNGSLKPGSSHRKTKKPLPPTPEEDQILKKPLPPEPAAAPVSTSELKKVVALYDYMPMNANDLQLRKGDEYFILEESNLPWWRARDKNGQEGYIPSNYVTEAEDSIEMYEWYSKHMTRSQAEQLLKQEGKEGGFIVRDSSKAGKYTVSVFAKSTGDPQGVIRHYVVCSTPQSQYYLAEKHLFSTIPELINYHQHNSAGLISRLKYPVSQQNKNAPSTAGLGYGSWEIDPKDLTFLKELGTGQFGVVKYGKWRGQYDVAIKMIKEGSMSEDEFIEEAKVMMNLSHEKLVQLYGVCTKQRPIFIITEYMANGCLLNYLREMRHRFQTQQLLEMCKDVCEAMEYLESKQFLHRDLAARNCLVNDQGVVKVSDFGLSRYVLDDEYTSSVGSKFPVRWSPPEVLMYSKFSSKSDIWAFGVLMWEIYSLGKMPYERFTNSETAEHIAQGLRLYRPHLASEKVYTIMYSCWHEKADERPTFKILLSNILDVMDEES
Experimental: Test example 1: Inhibitory activity of compounds of the present disclosure against BTK • I. Experimental materials and instruments • 1. BTK recombinant human protein (Thermo, PV3363) • 2. HTRF KinEASE-TK kit (Cisbio, 62TK0PEC) • 3. 1 M MgCl2 (Thermo, AM9530G) • 4. 1 M MnCl2 (Sigma, M1787-100ML) • 5. Adenosine 5'-triphosphate (ATP) (New England Biolabs, P0756L) • 6. DTT 2M (Sangon Biotech, B645939) • 7. Ultrapure water (Invitrogen, 10977-015) • 8. OptiPlate-384, white opaque 384-well microplate (PerkinElmer, 6007290) • 9. 96-well round-bottom plate (Corning, 3788) • 10. Biochemical incubator (Shanghai Boxun Medical & Biological Instruments Co., Ltd., BSP-100) • 11. 15-mL centrifuge tube (Corning) • 12. Benchtop high-speed centrifuge (Changsha Yingtai Instrument Co., Ltd., TD4N) • 13. Multifunctional microplate reader (PerkinElmer, EnVision) • 14. Bravo liquid handling platform (Agilent Technologies, SGC120TH34702) • II. Experimental procedure
The HTRF KinEASE-TK kit is designed to detect changes in BTK enzyme activity based on two technologies, i.e., fluorescence resonance energy transfer and time-resolved fluorescence. The kit is operated in two stages: 1) enzyme reaction stage: the enzyme reaction is initiated by adding ATP, where the enzyme phosphorylates the substrate, and the compounds are then added to competitively bind to BTK against ATP, thereby inhibiting substrate phosphorylation; and 2) detection stage: after the enzyme reaction is complete, a detection reagent is added to terminate the reaction. Different groups on the phosphorylated substrate bind to the energy donor and energy acceptor, respectively, bringing the two into close proximity. During the instrumental readout, the energy donor is excited by an external light source, which enables resonance energy transfer to the proximal energy acceptor. The acceptor, in turn, becomes excited and emits light at a specific wavelength. Thus, changes in enzyme activity can be detected by measuring the signal values, and the inhibition rate of the compounds against the target enzyme can be calculated, thereby evaluating the inhibitory effect of the compounds on BTK enzyme activity.
Preparation of enzyme reaction buffer: 5× Kinase Buffer was diluted 5-fold with ultrapure water, and then the stock solutions of MgCl2, MnCl2 and DTT were added. The final composition of the buffer was as follows: 1× Kinase Buffer, 10 mM MgCl2, 1 mM MnCl2, and 1 mM DTT.
(§1) Preparation of 5 × BTK working solution: The BTK (5.17 µM) stock solution was removed from -20°C storage. Given that the BTK concentration in the enzyme reaction system was 2 nM and the concentration of the 5× working solution was 10 nM, the BTK stock solution was diluted 517-fold with the enzyme reaction buffer according to the volume required for the experiment. The diluted solution was then added to the 384-well plate at 2 µL per well. The plate was placed in a plate spinner and centrifuged at 2000 rpm for 1 minute to bring the liquid to the bottom of the wells.
as §1, with “[…]. Given” for “Preparation of 5 × BTK working solution: The BTK (5.17 µM) stock solution was removed from -20°C storage. Given”, “the SEB” for “the BTK”, “was 50” for “was 2”, “was 250” for “was 10”, “diluted 10-fold” for “diluted 517-fold”
The test compounds dissolved in 100% DMSO at 20 mM were diluted with 100% DMSO to a concentration of 200 µM, which represents the 200× concentration of the highest compound concentration point in the reaction system. The compounds at this concentration were then subjected to 10-point 3-fold serial dilution with 100% DMSO. The positive control wells and negative control wells were set with 100% DMSO. […]

hERG potassium channels [2] = molecular target: T2, hERG potassium channels (Homo sapiens, UniProt Q12809); test: cell-based
T2 sequence (Q12809 whole entry): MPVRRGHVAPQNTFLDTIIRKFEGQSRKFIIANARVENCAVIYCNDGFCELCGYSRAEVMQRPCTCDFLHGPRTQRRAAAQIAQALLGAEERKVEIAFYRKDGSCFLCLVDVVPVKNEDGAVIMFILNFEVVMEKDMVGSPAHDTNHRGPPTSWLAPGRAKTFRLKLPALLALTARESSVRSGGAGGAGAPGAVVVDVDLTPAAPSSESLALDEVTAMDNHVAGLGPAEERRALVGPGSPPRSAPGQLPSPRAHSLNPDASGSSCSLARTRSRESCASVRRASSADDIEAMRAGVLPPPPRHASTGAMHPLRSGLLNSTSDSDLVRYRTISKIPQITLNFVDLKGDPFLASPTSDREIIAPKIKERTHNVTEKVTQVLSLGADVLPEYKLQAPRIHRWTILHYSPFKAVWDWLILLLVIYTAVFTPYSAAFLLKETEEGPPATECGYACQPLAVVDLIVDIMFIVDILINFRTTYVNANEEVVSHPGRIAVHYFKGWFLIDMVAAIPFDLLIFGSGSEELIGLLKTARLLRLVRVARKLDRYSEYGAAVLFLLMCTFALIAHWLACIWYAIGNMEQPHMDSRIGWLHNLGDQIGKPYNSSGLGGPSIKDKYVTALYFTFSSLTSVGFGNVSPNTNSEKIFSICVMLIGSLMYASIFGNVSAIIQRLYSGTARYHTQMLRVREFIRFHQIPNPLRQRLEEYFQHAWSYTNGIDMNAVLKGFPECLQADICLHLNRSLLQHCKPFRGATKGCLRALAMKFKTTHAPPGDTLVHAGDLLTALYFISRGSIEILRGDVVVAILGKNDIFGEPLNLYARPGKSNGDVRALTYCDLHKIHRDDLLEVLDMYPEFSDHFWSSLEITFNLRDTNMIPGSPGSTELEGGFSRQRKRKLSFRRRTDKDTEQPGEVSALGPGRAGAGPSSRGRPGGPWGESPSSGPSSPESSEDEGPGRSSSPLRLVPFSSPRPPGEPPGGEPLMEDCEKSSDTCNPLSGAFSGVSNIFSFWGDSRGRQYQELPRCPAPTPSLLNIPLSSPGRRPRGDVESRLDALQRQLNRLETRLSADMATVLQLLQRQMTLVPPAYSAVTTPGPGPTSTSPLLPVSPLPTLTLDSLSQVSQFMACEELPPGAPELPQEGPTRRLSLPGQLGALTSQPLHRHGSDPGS

[3] = test system: B cell activation in human whole blood; test: Inhibition of B cell activation in human whole blood (CD69 expression, flow cytometry); assay type: cell-based; conditions: anti-human IgD 30 µg/ml + IL-4 5 ng/ml, 18 hours, CD69-positive CD19-positive B cells, read-out: IC50 values of inhibitory activity against B cell activation in human whole blood
Excerpt: Test example 2: Inhibitory activity of compounds of the present disclosure against B cell activation in human whole blood • I. Experimental materials and instruments • 1. Human whole blood (internal recruitment) • 2. Goat F(ab')2 anti-human IgD-UNLB (SouthernBiotech, 2032-01) • 3. DPBS (1x) (Gibco, 14190-144) • 4. Recombinant human IL-4 (Peprotech, 200-04) • 5. Brilliant Violet 421™ anti-human CD19 antibody (Biolegend, 302234) • 6. APC anti-human CD69 antibody (Biolegend, 310910) • 7. APC mouse IgG1, κ isotype control antibody (Biolegend, 400120) • 8. eBioscience™ 10X RBC lysis buffer (multi-species) (Thermo, 004300-54) • 9. NEST 96-well deep-well plate (Wuxi NEST Biotechnology Co., Ltd., 503501) • 10. 96-well round-bottom plate (Corning, 3788) • 11. 96-well flat-bottom plate (Corning, 3599) • 12. Attune™ NxT acoustic focusing cytometer (ThermoFisher Scientific, 4.2.0) • 13. Cell incubator (Thermo, Forma steri-cycle i160) • II. Experimental procedure
B cells express the B cell receptor (BCR) complex on their surface. When B cells in human whole blood are induced to activate, they can trigger the downstream signalling pathways of the receptor and express the activation marker CD69. The expression of CD69 in activated B cells was detected by flow cytometry, and the IC50 of the compounds were calculated to evaluate the effects of the compounds on BCR activation.
The test compounds dissolved in 100% DMSO at 20 mM were diluted with 100% DMSO to a concentration of 1 mM, which represents the 200× concentration of the highest compound concentration point in the reaction system. The compounds at this concentration were then subjected to 8-point 4-fold serial dilution with 100% DMSO. The positive control wells were set with 100% DMSO, whereas the negative control wells were set with Remiburtinib at a final concentration of 5 µM. The serially diluted compounds and 100% DMSO were further diluted 10-fold in PBS to achieve the 20× concentration, followed by thorough mixing.
After thorough mixing, the whole blood sample was transferred to a loading reservoir and then dispensed into a 96-well flat-bottom plate at 80 µl per well. The compound dilution was dispensed at 5 µl per well. The 11th column of each row was designated as the negative control well, with 5 µl of 100 µM positive control drug added to each well. After thorough mixing for 5 min, the plate was incubated in a 37°C incubator for 30 min. Human IgD antibody was diluted 1.67-fold with PBS to a concentration of 300 µg/mL, and 10 µl of the diluted solution was added to each well of the culture plate (final concentration: 30 µg/ml). Human IL-4 (stock solution at 50 µg/ml) was diluted 500-fold with PBS to a concentration of 100 ng/mL, and 5 µl of the diluted solution was added to each well of the culture plate (final concentration: 5 ng/ml). After thorough mixing for 5 min, the plate was cultured in a 37°C incubator with 5% CO2 for 18 hours.
Flow cytometry detection: CD69-APC, CD19-BV421 and CD4-APC antibodies, and the isotype control antibodies for CD69-APC were removed from 4°C storage. Each antibody was added at 1 µl per well. After thorough mixing for 5 min, the plate was incubated for 30 min at 4°C (refrigerator) in the dark for staining. The 10X RBC lysis buffer was diluted in water to prepare 1X RBC lysis buffer. Aliquots of 1 ml of the lysis buffer were dispensed into each well of a 96-well deep-well plate in advance. The stained samples were transferred into the deep-well plate containing the lysis buffer for erythrocyte lysis. After completing the transfer of an entire plate, the plate was incubated in the dark for 15-20 min. Upon completion of lysis, the plate was centrifuged at 2000 rpm for 4 min. Each well was washed with 1 ml of PBS. Subsequently, the cells were resuspended in 200 µl of PBS, transferred to a 96-well plate, and washed twice more using the same procedure. The samples were resuspended in 200 µl of PBS per well and then subjected to flow cytometry detection. […]

hERG potassium channels [4] = molecular target: T2, hERG potassium channels; test: hERG channel inhibition, automated patch-clamp in HEK293-hERG stable transfected cell line; conditions: read-out: IC50 values of blocking effects on hERG potassium currents, whole-cell patch-clamp, tail currents

`C=CC(=O)N(C)CCOc1c(N)ncnc1-c1cc(F)cc(NC(=O)c2cc3c(cc2F)C(C)(C)CO3)c1C` [Example 8, N-(3-(6-amino-5-(2-(N-methacrylamido)ethoxy)pyrimidin-4-yl)-5-fluoro-2-methylphenyl)-5-fluoro-3,3-dimethyl-2,3-dihydrobenzofuran-6-carboxamide] gave an IC50 [1] of 6.2 nM, an IC50 (hERG potassium channels [2]) of 10000 nM and an IC50 [3] of 10 to 100 nM.

For `C=CC(=O)N1C[C@H](F)C[C@H]1COc1c(N)ncnc1-c1cc(F)cc(NC(=O)c2ccc3c(c2F)OCC3(C)C)c1C` [Example 32, N-(3-(5-(((2S,4R)-1-acryloyl-4-fluoropyrrolidin-2-yl)methoxy)-6-aminopyrimidin-4-yl)-5-fluoro-2-methylphenyl)-7-fluoro-3,3-dimethyl-2,3-dihydrobenzofuran-6-carboxamide], the IC50 [1] was 1.56 nM, the IC50 (hERG potassium channels [2]) was 12000 nM and the IC50 [3] was 10 to 100 nM.

`C=CC(=O)N(CC)CCOc1c(N)ncnc1-c1cc(F)cc(NC(=O)c2ccc3c(c2F)OCC3(C)C)c1C` [Example 29, N-(3-(6-amino-5-(2-(N-ethylacrylamido)ethoxy)pyrimidin-4-yl)-5-fluoro-2-methylphenyl)-7-fluoro-3,3-dimethyl-2,3-dihydrobenzofuran-6-carboxamide] gave an IC50 [1] of 1.73 nM, an IC50 (hERG potassium channels [2]) of 16000 nM and an IC50 [3] of 10 to 100 nM.

Work on `C=CC(=O)N(C)CCOc1c(N)ncnc1-c1cc(F)cc(NC(=O)c2ccc3c(c2)OCC3(C)C)c1C` [Example 27, N-(3-(6-amino-5-(2-(N-methacrylamido)ethoxy)pyrimidin-4-yl)-5-fluoro-2-methylphenyl)-3,3-dimethyl-2,3-dihydrobenzofuran-6-carboxamide] yielded an IC50 [1] of 7.52 nM, an IC50 (hERG potassium channels [2]) of 12000 nM and an IC50 [3] of 10 to 100 nM.

In the case of `C=CC(=O)N(CCF)CCOc1c(N)ncnc1-c1cc(F)cc(NC(=O)c2ccc3c(c2F)OCC3(C)C)c1C` [Example 30, N-(3-(6-amino-5-(2-(N-(2-fluoroethyl)acrylamido)ethoxy)pyrimidin-4-yl)-5-fluoro-2-methylphenyl)-7-fluoro-3,3-dimethyl-2,3-dihydrobenzofuran-6-carboxamide], the IC50 [1] is reported as 1.55 nM, the IC50 (hERG potassium channels [2]) is reported as 20000 nM and the IC50 [3] is reported as 10 to 100 nM.

Work on `[2H]C([2H])(CN(C)C(=O)C=C)Oc1c(N)ncnc1-c1cc(F)cc(NC(=O)c2ccc3c(c2F)OCC3(C)C)c1C` [Example 28, N-(3-(6-amino-5-(2-(N-methacrylamido)ethoxy-1,1-d2)pyrimidin-4-yl)-5-fluoro-2-methylphenyl)-7-fluoro-3,3-dimethyl-2,3-dihydrobenzofuran-6-carboxamide] yielded an IC50 [1] of 2.12 nM, an IC50 (hERG potassium channels [2]) of 14000 nM and an IC50 [3] of 10 to 100 nM.

Molecule `[2H]C([2H])([2H])N(CCOc1c(N)ncnc1-c1cc(F)cc(NC(=O)c2cc3c(cc2F)C2(CC3)CC2)c1C)C(=O)C=C` [Example 19, N-(3-(6-amino-5-(2-(N-(methyl-d3)acrylamido)ethoxy)pyrimidin-4-yl)-5-fluoro-2-methylphenyl)-6'-fluoro-2',3'-dihydrospiro[cyclopropane-1,1'-indene]-5'-carboxamide] has an IC50 [1] of 8.99 nM and an IC50 [3] of 10 to 100 nM.

In the case of `C=C(C)C(=O)NCCOc1c(N)ncnc1-c1cc(F)cc(NC(=O)c2ccc3c(c2F)OC(C)(C)C3)c1C` [Example 4, N-(3-(6-amino-5-(2-(N-methacrylamido)ethoxy)pyrimidin-4-yl)-5-fluoro-2-methylphenyl)-7-fluoro-2,2-dimethyl-2,3-dihydrobenzofuran-6-carboxamide], the IC50 (hERG potassium channels [4]) is reported as 15500 nM.

`[2H]C([2H])([2H])N(CCOc1c(N)ncnc1-c1cc(F)cc(NC(=O)c2ccc3c(c2F)OCC32CC2)c1C)C(=O)C=C` [Example 18, N-(3-(6-amino-5-(2-(N-(methyl-d3)acrylamido)ethoxy)pyrimidin-4-yl)-5-fluoro-2-methylphenyl)-7-fluoro-2H-spiro[benzofuran-3,1'-cyclopropane]-6-carboxamide] gave an IC50 [1] of 3.78 nM and an IC50 [3] of 10 to 100 nM.

Work on `C=CC(=O)N(C)CCOc1c(N)ncnc1-c1cc(F)cc(NC(=O)c2ccc3c(c2F)OCC3(C)C)c1C` [Example 7, N-(3-(6-amino-5-(2-(N-methacrylamido)ethoxy)pyrimidin-4-yl)-5-fluoro-2-methylphenyl)-7-fluoro-3,3-dimethyl-2,3-dihydrobenzofuran-6-carboxamide] yielded an IC50 [1] of 3 nM, an IC50 (hERG potassium channels [2]) of 17000 nM and an IC50 [3] of 10 to 100 nM.
